Tests used:
BRD4 BD2 = target: T1, BRD4 BD2 (Homo sapiens, UniProt O60885, Y97A); assay: BRD4 BD2 TR-FRET competition assay; assay type: binding; settings: for Selectivity for BRD4 BD2 over BRD4 BD1 (BRD4 BD2 pIC50 - BRD4 BD1 pIC50): in at least one of the TR-FRET assays; for fold selective for BRD4 BD2 over BRD4 BD1: inferred from the log unit selectivity; for IC50: mean where stated, n given, read-out: pIC50 in the BRD4 BD2 TR-FRET assay (converted)
T1 construct: BRD4 (1-477) (Y97A) and (Y390A); made in house; host or cells: E. coli (pET15b vector)
Experimental: Bromodomain binding was assessed utilising a time resolved fluorescent resonance energy transfer (TR-FRET) competition assay. […] Europium chelate, conjugated to an anti-6*His antibody, was utilised as the donor fluorophore in the TR-FRET pair.
In order to generate a TR-FRET signal, donor fluorophore is excited by a laser at λ337 nm, which subsequently leads to emission at λ618 nm.
In order to monitor differential binding to either BD1 or BD2, single residue mutations of key tyrosines to alanine were made in the acetyl lysine binding pockets. To validate this approach, a double residue mutant tandem domain protein was produced for each of the BET family members.
Final purification was completed by Superdex 200 prep grade size exclusion column. Purified protein was stored at −80° C. in 20 mM HEPES pH 7.5 and 100 mM NaCl.
All assay components were dissolved in an assay buffer composing of 50 mM HEPES pH7.4, 50 mM NaCl, 5% Glycerol, 1 mM DTT and 1 mM CHAPS. […] An equal volume of 3 nM of anti-6*His Europium chelate was added to all wells, followed by a further 30 minute incubation at room temperature. TR-FRET was detected using a Perkin Elmer Multimode plate reader, by exciting the donor fluorophore at λ337 nm and subsequently, after a delay of 50 μsecs, measuring emission of the donor and acceptor fluorophores at λ615 nm and λ665 nm, respectively.
cA four parameter curve fit of the following form was then applied: y=a+((b−a)/(1+(10^x/10^c)^d) • Where ‘a’ is the minimum, ‘b’ is the Hill slope, ‘c’ is the pIC50 and ‘d’ is the maximum.

BRD4 BD1 = target: T2, BRD4 BD1 (Homo sapiens, UniProt O60885, Y390A); assay: BRD4 BD1 TR-FRET competition assay; assay type: binding; settings: mean, n given; read-out: pIC50 in the BRD4 BD1 TR-FRET assay (converted)
T2 construct: BRD4 (1-477) (Y97A) and (Y390A); made in house; host or cells: E. coli (pET15b vector)
Experimental: Bromodomain binding was assessed utilising a time resolved fluorescent resonance energy transfer (TR-FRET) competition assay. To enable this approach a known, high affinity, pan-BET interacting small molecule was labelled with Alexa Fluor® 647, which is a far-red-fluorescent dye (Reference Compound X). Reference Compound X acts as a reporter of bromodomain binding and is the acceptor fluorophore component of the TR-FRET pair. Europium chelate, conjugated to an anti-6*His antibody, was utilised as the donor fluorophore in the TR-FRET pair. […]
The competition of the compounds of formula (I) with Reference Compound X for binding to the BET family (BRD2, BRD3, BRD4 and BRDT) was assessed using protein truncates spanning both bromodomain 1 (BD1) and bromodomain 2 (BD2). […] Utilising a Fluorescence Polarisation approach, binding affinities for each of the single and double mutants for Reference Compound X were determined. […]
All assay components were dissolved in an assay buffer composing of 50 mM HEPES pH7.4, 50 mM NaCl, 5% Glycerol, 1 mM DTT and 1 mM CHAPS. […] TR-FRET was detected using a Perkin Elmer Multimode plate reader, by exciting the donor fluorophore at λ337 nm and subsequently, after a delay of 50 μsecs, measuring emission of the donor and acceptor fluorophores at λ615 nm and λ665 nm, respectively. […]

[1] = tested on: single mutated bromodomain tandem proteins (BET family); assay: Fluorescence Polarisation binding affinity, single mutants; design: species or system Human
Experimental: (§1) The competition of the compounds of formula (I) with Reference Compound X for binding to the BET family (BRD2, BRD3, BRD4 and BRDT) was assessed using protein truncates spanning both bromodomain 1 (BD1) and bromodomain 2 (BD2). In order to monitor differential binding to either BD1 or BD2, single residue mutations of key tyrosines to alanine were made in the acetyl lysine binding pockets. To validate this approach, a double residue mutant tandem domain protein was produced for each of the BET family members. Utilising a Fluorescence Polarisation approach, binding affinities for each of the single and double mutants for Reference Compound X were determined. […] The affinities of the single mutated bromdomain tandem proteins for Reference Compound X were equi-potent with the corresponding non-mutated BET protein. […] In the TR-FRET competition assay, Reference Compound X is used at a concentration that is equivalent to the Kd for the non-mutated bromodomain, which ensures that no binding at the mutated bromodomain is detected. […]

[2] = tested on: double residue mutant tandem domain protein of each of the BET family members; assay: Fluorescence Polarisation binding affinity, double mutants; design: species or system Human
Experimental: as §1

SMILES | IC50 (BRD4 BD2) | also measured
CNC(=O)c1cc(C(=O)N[C@H]2[C@@H]3CN(C(=O)OC(C)(C)C)C[C@@H]32)cc2c1O[C@H](C)[C@H]2c1ccccc1 [Example 38, (1R,5S,6S)-tert-Butyl 6-((2R,3S)-2-methyl-7-(methylcarbamoyl)-3-phenyl-2,3-dihydrobenzofuran-5-carboxamido)-3-azabicyclo[3.1.0]hexane-3-carboxylate] | 0.01 µM | Selectivity for BRD4 BD2 over BRD4 BD1 (BRD4 BD2 pIC50 - BRD4 BD1 pIC50) (BRD4 BD2): 3.3 log unit; fold selective for BRD4 BD2 over BRD4 BD1 (BRD4 BD2): at least 100 fold; IC50 (BRD4 BD1): 20 µM
CNC(=O)c1cc(C(=O)N[C@H]2C[C@@H]2CCO)cc2c1O[C@@H](CF)[C@@H]2c1ccccc1 (mixture of isomers) [Example 197, 2R,3R)-2-(fluoromethyl)-N^5-((trans)-2-(2-hydroxyethyl)cyclopropyl)-N^7-methyl-3-phenyl-2,3-dihydrobenzofuran-5,7-dicarboxamide (diastereomeric mixture)] | 1 to 100 µM | –
COc1ccc2c(c1)C(c1ccc(Cl)cc1)=N[C@@H](CC(=O)NCCCCCNC(=O)CCCCCC1(C)/C(=C/C=C/C=C/C3=[N+](CCCCS(=O)(=O)O)c4ccc(S(=O)(=O)O)cc4C3(C)C)N(CCCCS(=O)(=O)[O-])c3ccc(S(=O)(=O)O)cc31)c1nnc(C)n1-2 (stereo partly shown) [Reference Compound X] | – | affinity versus corresponding non-mutated BET protein [1]: equi-potent; reduction in Kd (affinity) versus non mutated, wild type tandem BET proteins [2]: > 1000 fold
CNC(=O)c1cc(C(=O)NC)c2c(c1)[C@@H](c1ccccc1)[C@H](C)O2 [Example 100, (2S,3R)-N^5,N^7,2-trimethyl-3-phenyl-2,3-dihydrobenzofuran-5,7-dicarboxamide] | 1 to 100 µM | –
CNC(=O)c1cc(C(=O)NCCCC2CNCCO2)cc2c1O[C@H](C)[C@H]2c1ccccc1 (stereo partly drawn) [Example 54, (2R,3S)—N^7,2-Dimethyl-N^5-(3-(morpholin-2-yl)propyl)-3-phenyl-2,3-dihydrobenzofuran-5,7-dicarboxamide] | 0.0158 µM | Selectivity for BRD4 BD2 over BRD4 BD1 (BRD4 BD2 pIC50 - BRD4 BD1 pIC50) (BRD4 BD2): 3.2 log unit; fold selective for BRD4 BD2 over BRD4 BD1 (BRD4 BD2): at least 1000 fold; IC50 (BRD4 BD1): 25.1 µM
CNC(=O)c1cc(C(=O)NCC(C)O)cc2c1O[C@H](C)[C@H]2c1ccccc1 (stereo partly drawn) [Example 6, (2R,3S)—N^5-(2-Hydroxypropyl)-N^7,2-dimethyl-3-phenyl-2,3-dihydrobenzofuran-5,7-dicarboxamide] | 1 to 100 µM | –
CNC(=O)c1cc(C(=O)N[C@H]2[C@@H]3CN(C(C)=O)C[C@@H]32)cc2c1O[C@@H](C)[C@@H]2c1ccccc1 [Example 189, (2S,3R)-N^5-((1R,5S,6s)-3-acetyl-3-azabicyclo[3.1.0]hexan-6-yl)-N^7,2-dimethyl-3-phenyl-2,3-dihydrobenzofuran-5,7-dicarboxamide] | 1 to 100 µM | –

The next lines start with results.

IC50 (BRD4 BD2) | SMILES | also measured
1 to 100 µM | CNC(=O)c1cc(C(=O)Nc2ccnnc2)cc2c1O[C@@H](CF)[C@@H]2c1ccccc1 [Example 193, (2R,3R)-2-(fluoromethyl)-N^7-methyl-3-phenyl-N^5-(pyridazin-4-yl)-2,3-dihydrobenzofuran-5,7-dicarboxamide] | –
1 to 100 µM | CNC(=O)c1cc(C(=O)Nc2ncn(C)n2)cc2c1O[C@@H](CF)[C@@H]2c1ccccc1 [Example 192, (2R,3R)-2-(fluoromethyl)-N^7-methyl-N^5-(1-methyl-1H-1,2,4-triazol-3-yl)-3-phenyl-2,3-dihydrobenzofuran-5,7-dicarboxamide] | –
1 to 100 µM | CNC(=O)c1cc(C(=O)NCCn2cnnc2)cc2c1O[C@H](CF)[C@H]2c1ccccc1 (relative stereo) [Example 133, (Trans)-N^5-(2-(4H-1,2,4-triazol-4-yl)ethyl)-2-(fluoromethyl)-N^7-methyl-3-phenyl-2,3-dihydrobenzofuran-5,7-dicarboxamide] | –
1 to 100 µM | CNC(=O)c1cc(C(=O)N[C@@H]2C[C@H]2CCO)cc2c1O[C@@H](CF)[C@@H]2c1ccccc1 (mixture of isomers) [Example 196, (2R,3R)-2-(fluoromethyl)-N^5-((trans)-2-(2-hydroxyethyl)cyclopropyl)-N^7-methyl-3-phenyl-2,3-dihydrobenzofuran-5,7-dicarboxamide (diastereomeric mixture)] | –
1 to 100 µM | CNC(=O)c1cc(C(=O)Nc2cn(C)nn2)cc2c1O[C@@H](CF)[C@@H]2c1ccccc1 [Example 194, (2R,3R)-2-(fluoromethyl)-N^7-methyl-N^5-(1-methyl-1H-1,2,3-triazol-4-yl)-3-phenyl-2,3-dihydrobenzofuran-5,7-dicarboxamide] | –

Reference: patent publication US10583112B2, “Benzo[b]furans as bromodomain inhibitors” (GlaxoSmithKline Intellectual Property (No. 2) Limited, priority 2016, dated 2020)
